This note sets out measurements from PMC1073692, “An Unbiased Cell Morphology–Based Screen for New, Biologically Active Small Molecules” (PLoS Biology, 2005).

Values after ≈ are worked out from the molar mass of the structure shown. Where two headings read alike, the source gives them in different places.

One data set concerns the target T1, Fyn (Homo sapiens, UniProt P06241).
T1 construct: made in house; host or cells: bacteria
Description: Kinase disk assay (32P transfer to peptide), Fyn. The class given is biochemical. Here is the method: (§1) Fyn and p38 kinases were expressed in bacteria and purified as previously described. Protein kinase A and Protein kinase B were obtained commercially (Upstate Cell Signaling Specialties Charlottesville, Virginia, United States). […] Reaction mixtures (27 μl) were spotted onto a phosphocellulose disk and washed with 0.5% H3PO4. The transfer of ^32P was measured by standard scintillation counting. […] When the IC50 value fell between two measured concentrations, it was calculated based on the assumption of an inversely proportional relationship between inhibitor concentration and counts per minute between the two data points.
(§2) IC50 values against Fyn and p38 are given (left), and percentage activity of PKA and PKB in presence of the inhibitors are given (right). Kinase activity was determined using a standardized disk assay based on the P^32 transfer to a synthetic peptide (See Materials and Methods). […] Peptide subrate sequences for each kinase are shown below:
[…] (100 µM) was used as the substrate for Fyn.

For another data set, the target named is T2, protein kinase A (Homo sapiens, UniProt P17612).
T2 construct: purchased Upstate Cell Signaling Specialties
As to the kind of experiment: Kinase disk assay (32P transfer to peptide), PKA. The data set is classed as biochemical. The following applies: remaining kinase activity. Here is the method: as §1, §2
bzRRASLG (100 µM) was used as the susbtrate for PKA.

In data set [1] the test system is A549, DU145, HUVEC, SF268 and SKOV3 cells. As to the kind of experiment: Cytometrix cell morphology-based screen. Details: species or system human. The following applies: 24 h, 6 nM to 40 μM, five cell types. Here is the method: SKOV3 (ovarian epithelial cancer), A549 (lung epithelial cancer), and SF268 (central nervous system epithelial cancer) were chosen for their broad genetic diversity and obtained from the National Institutes of Health. These human cells were grown and maintained in RMPI medium (Mediatech, Herndon, Virginia, United States) with 5% fetal calf serum (FBS, HyClone, Logan, Utah, United States). DU145 (prostate epithelial cancer) cells ( ATTC, Manassas, Virginia, United States) were maintained in MEM with 5% FBS. HUVEC cells (VEC Technologies, Rensselaer, New York, United States) were maintained in MCDB131 medium (VEC Technologies) with 10% FBS. For the assays 1,000–1,800 trypsinized (Mediatech) cells per well (depending on cell type) were plated in 384-well plates (Corning Costar, Acton, Massachusetts, United States) using a Multidrop (Thermo Labsystems, Beverly, Massachusetts, United States) and incubated for 24 h, the approximate doubling time. Six cell plates were made for each cell line.
Compound stocks were maintained in DMSO. Compound information was stored in ActivityBase (ID Business Solutions, Guildford, United Kingdom). Compounds were serially diluted in 384-well drug plates to achieve eight concentrations diluting 3× in DMSO between wells using a Multimek (Beckman Coulter, Fullerton, California, United States). Wells were reserved on every drug plate for negative and positive controls. Negative-control wells contained DMSO only and the positive-control wells received a titration of paclitaxel, a tubulin stabilizer (Sigma-Aldrich-Fluka, St. Louis, Missouri, United States). […] Small molecules were tested at 40 μM on cells based on the logic that cellular effects on cells at […] concentration are most likely nonspecific and that we would most likely get a full-dose response after eight 3-fold dilutions (6 nM to 40 μM final concentrations).
Compounds were added to cell plates from drug plates. Compound mixed with medium was added to the cells to achieve a 0.4% DMSO concentration on prepared cell plates using a PlateTrak (CCS Packard, Torrance, California, United States). Treated cells were incubated for another 24 h, the compound exposure time.
Cells were stained for visualization of the nuclei, Golgi apparatus, and microtubules. Cells were fixed with 4% formaldehyde (Polysciences, Warrington, Pennsylvania, United States) for 1 h; washed in TBS (Teknova, Half Moon Bay, California, United States); blocked in 0.01% Triton X-100 (ICN Biomedicals, Irvine, California, United States) and 1% BSA in TBS (Teknova) and then left to incubate for 1 h; stained with 0.01% Triton X-100, 0.1% BSA, 5 μg/ml Hoechst 33342 (Molecular Probes, Eugene, Oregon, United States), 5 μg/ml FITC-Lectin Lens Culinaris (Sigma-Aldrich-Fluka), and 3 μg/ml Rhodamine Red–labeled monoclonal antibody DM1α (courtesy of Tim Stearns) for 1 h; and then washed in TBS. All of these steps were performed with a PlateTrak using an ELx405 microplate washer (Bio-Tek Instruments, Winooski, Vermont, United States). This was done in triplicate for each cell line.
Cells were imaged on an inverted Axiovert 100M epifluorescent microscope (Carl Zeiss, Oberkochen, Germany) with a 5× objective and a Xenon lamp (Sutter Instruments, Novato, California, United States). A 5× magnification was chosen (rather than 40×) primarily as a function of the need to acquire a large number of individual cells in order to gather statistically relevant data on relatively rare subpopulations. The number of cells in a randomly acquired 40× image is not sufficient to make meaningful statistical measurements across many cells. Metamorph (Universal Imaging, Downingtown, Pennsylvania, United States) was used to control the motorized x, y, z stage (Prior Scientific, Rockland, Massachusetts, United States) that moved the plate to each well, autofocused, and took three successive fluorescent images with an Orca 100 camera (Hamamatsu, Hamamatsu City, Japan). […]

The next data set addresses T3, protein kinase B (Homo sapiens, UniProt P31749).
T3 construct: purchased Upstate Cell Signaling Specialties
As to the kind of experiment: Kinase disk assay (32P transfer to peptide), PKB. The data set is classed as biochemical. To be noted: 25 min; 1 µM inhibitor; remaining kinase activity; read-out: Relative activity @ 1 µM inhibitor PKB. Here is the method:
as §1, §2
bzRPRTSSF (100 µM) was used as the susbtrate for PKB.

The next data set concerns the target T4, human CBR1 (Homo sapiens, UniProt P16152).
T4 sequence (P16152 1-277): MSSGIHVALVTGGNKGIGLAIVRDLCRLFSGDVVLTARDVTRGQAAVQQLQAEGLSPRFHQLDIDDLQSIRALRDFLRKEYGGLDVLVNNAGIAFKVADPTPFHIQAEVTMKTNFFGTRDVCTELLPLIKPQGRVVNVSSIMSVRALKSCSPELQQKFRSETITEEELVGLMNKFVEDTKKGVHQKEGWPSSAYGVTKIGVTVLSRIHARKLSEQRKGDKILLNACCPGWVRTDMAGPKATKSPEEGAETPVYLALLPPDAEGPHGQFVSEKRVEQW
Description: CBR1 assay (NADPH-dependent reduction of menadione, spectrophotometric).

The nature of data set [2]: Solubility limit in the CBR1 assay. The data set is classed as physicochemical.
The next data set deals with T5, p38-α (Homo sapiens, UniProt Q16539).
T5 construct: made in house; host or cells: bacteria
T5 sequence (Q16539 whole entry): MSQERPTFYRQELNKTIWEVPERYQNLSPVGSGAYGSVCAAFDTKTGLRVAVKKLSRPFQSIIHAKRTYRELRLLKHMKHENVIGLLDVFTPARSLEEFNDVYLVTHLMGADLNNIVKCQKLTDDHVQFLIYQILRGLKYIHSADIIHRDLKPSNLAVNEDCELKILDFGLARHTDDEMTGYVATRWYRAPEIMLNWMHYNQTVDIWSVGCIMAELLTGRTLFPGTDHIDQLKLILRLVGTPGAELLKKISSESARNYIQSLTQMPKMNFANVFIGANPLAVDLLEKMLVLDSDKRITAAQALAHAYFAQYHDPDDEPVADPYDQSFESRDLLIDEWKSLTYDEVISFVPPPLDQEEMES
Description: Kinase disk assay (32P transfer to peptide), p38. The class given is biochemical. The following applies: Table S3; […] 100 µM substrate, 11 nM [γ-32P]ATP. The procedure:
as §1, §2
[…] (100 µM) was used as the substrate for p38.

T1 sequence (P06241 whole entry, species assumed): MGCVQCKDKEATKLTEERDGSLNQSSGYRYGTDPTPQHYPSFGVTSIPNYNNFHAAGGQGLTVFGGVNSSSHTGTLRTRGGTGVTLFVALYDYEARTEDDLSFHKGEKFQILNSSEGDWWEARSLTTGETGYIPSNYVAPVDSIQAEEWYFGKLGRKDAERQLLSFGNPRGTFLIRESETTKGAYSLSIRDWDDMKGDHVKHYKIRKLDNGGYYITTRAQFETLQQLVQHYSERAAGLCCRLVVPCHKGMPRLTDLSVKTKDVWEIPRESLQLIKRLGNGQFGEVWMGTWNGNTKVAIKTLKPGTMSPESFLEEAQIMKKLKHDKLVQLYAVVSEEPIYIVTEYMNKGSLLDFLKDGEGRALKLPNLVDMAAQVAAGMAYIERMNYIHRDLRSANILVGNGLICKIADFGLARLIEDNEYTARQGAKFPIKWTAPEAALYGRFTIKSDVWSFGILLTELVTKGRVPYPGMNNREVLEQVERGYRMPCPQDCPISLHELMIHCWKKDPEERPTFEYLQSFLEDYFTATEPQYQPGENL
T3 sequence (P31749 whole entry, species assumed): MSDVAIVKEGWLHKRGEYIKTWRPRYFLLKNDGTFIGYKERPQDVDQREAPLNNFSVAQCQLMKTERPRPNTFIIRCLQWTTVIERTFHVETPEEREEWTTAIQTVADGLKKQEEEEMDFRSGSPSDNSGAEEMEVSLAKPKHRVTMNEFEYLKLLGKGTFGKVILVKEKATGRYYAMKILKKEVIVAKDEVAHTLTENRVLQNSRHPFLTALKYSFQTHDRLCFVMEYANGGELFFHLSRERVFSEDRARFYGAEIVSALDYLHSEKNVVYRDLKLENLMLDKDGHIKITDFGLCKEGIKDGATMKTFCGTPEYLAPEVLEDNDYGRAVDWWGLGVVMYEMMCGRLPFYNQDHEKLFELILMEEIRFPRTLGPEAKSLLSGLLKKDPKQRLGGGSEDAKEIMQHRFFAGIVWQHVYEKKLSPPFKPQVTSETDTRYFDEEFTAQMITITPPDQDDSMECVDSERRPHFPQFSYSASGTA
Description for human CBR1: CBR1 activity was determined spectrophotometrically at 25 °C. The standard assay mixture consisted of 50 mM sodium phosphate (pH 6.8), 200 μM NADPH, and 200 μM menadione in a total volume of 1 ml. Compounds were dissolved in DMSO as 100× stock solutions. Reactions were initiated by the addition of enzyme, and initial rates were determined by monitoring the disappearance of NADPH at 340 nM. Controls without substrates or enzyme were routinely included.

In the case of `CC(C)(C)n1nc(-c2ccccc2)c2c(N)ncnc21` [PP, 1-tert-butyl-3-phenyl-1H-pyrazolo[3,4-d]pyrimidin-4-amine, reference compound], the IC50 at Fyn (Table S3, LEEIYGEFKKK 100 µM substrate, 11 nM [γ-32P]ATP, read-out: IC50 (nM) Fyn) is 110 nM; on Fyn (read-out: IC50 against Fyn (Figure 3)), 50 nM; at human CBR1 (IC50 against CBR1, 200 μM NADPH, 200 μM menadione, pH 6.8, 25 °C) it was over 200000 nM; on p38-α it was 4000 nM. Besides, the “Relative activity @ 1 µM inhibitor PKA” value on protein kinase A worked out at 92%. Further, the “Cytometrix phenotype (PCA trajectory)” value in data set [1] is reported as “phenotypic profile comparable to PP2”. The activity at 1 µM at protein kinase B came to 92%. The “Inhibition of CBR1 activity” value at human CBR1 (up to solubility limit of 200 μM) was “no inhibition”. The solubility in data set [2] was determined as 200 µM (≈ 53.5 µg/mL).

Broadly, the IC50 is the concentration that gives 50% inhibition. For orientation: solubility means the concentration that dissolves in the medium under given conditions. A higher solubility goes with a readily soluble substance.
